Measurements: ChEMBL document CHEMBL2113921, “Open Source Malaria Deposition 1. http://malaria.ourexperiment.org” (2013)
≈ marks a conversion by molar mass, not a printed value.

Legend:
Plasmodium falciparum [1] = test: OSM: Inhibition of Plasmodium falciparum 3D7 growth. IC50 values determined from 21 point dose response curves. Avery Group Griffith.; assay type: functional, organism-based
Plasmodium falciparum [2] = test: OSM: Inhibition of Plasmodium falciparum 3D7 growth using a SYBR green I fluorescence based assay. Dose response curves were generated comprising of 8 points using a 2-fold serial dilution for the maximum final concentration of 1000 nM. Ralph Group, Bio21.; assay type: functional, organism-based
Plasmodium falciparum [3] = test: OSM: Inhibition of Plasmodium falciparum 3D7 growth using a SYBR green I fluorescence based assay. GSK Tres Cantos.; assay type: functional, organism-based
[4] = OSM: HEK293 cytotoxicity assay. Duplicate point single experiment at 120 uM. Avery Group, Griffith.; assay type: toxicity, cell-based; details: human, HEK293 cells; read-out: Inhibition
[5] = OSM: Microsomal stability: 0.5 uM substrate, 0.4 mg/mL protein, NADPH cofactor. Analysed by LC/MS. Degradation rate classification.; assay type: ADME, Microsome; details: human, microsomes
Plasmodium falciparum [6] = test: OSM: Late stage gametocytes. IC50 values determined from 21 point dose response curves. Avery Group Griffith.; assay type: functional, organism-based; details: Pfs16-GFP transgenic NF54
Plasmodium falciparum K1 [7] = test: OSM: Inhibition of Plasmodium falciparum K1 growth. IC50 values determined from 21 point dose response curves. Avery Group Griffith.; assay type: functional, organism-based
Plasmodium falciparum K1 [8] = test: OSM: Percent inhibition of Plasmodium falciparum K1 growth at 120 uM. Avery Group Griffith.; assay type: functional
Plasmodium falciparum [9] = test: OSM: Percent inhibition of Plasmodium falciparum 3D7 growth at 120 uM. Avery Group Griffith.; assay type: functional
[10] = OSM: Kinetic solubility pH 6.5 isotonic phosphate buffer.; assay type: ADME
[11] = OSM: Microsomal stability: 0.5 uM substrate, 0.4 mg/mL protein, NADPH cofactor). Analysed by LC/MS. In vitro CLint (uL/min/mg protein).; assay type: ADME, Microsome; details: human, microsomes
[12] = OSM: Microsomal stability: 0.5 uM substrate, 0.4 mg/mL protein, NADPH cofactor. Analysed by LC/MS. Degradation half life (min).; assay type: ADME, Microsome; details: human, microsomes

In the case of CCc1ccc(-n2c(C)cc(CN3CCC(C(=O)O)CC3)c2C)cc1, the IC50 (Plasmodium falciparum [1]) is reported as > 40000 nM.

For Cc1cc(/C=C2\S/C(=N\c3ccccc3)N(c3ccccc3)C2=O)c(C)n1-c1ccc(C(F)(F)F)cc1, the IC50 (Plasmodium falciparum [1]) was 54 nM, the IC50 (Plasmodium falciparum [2]) was 485 nM and the IC50 (Plasmodium falciparum [3]) was 372 nM.

In the case of Cc1cc(C(=O)NCC(=O)Nc2c(C)n(C)n(-c3ccccc3)c2=O)c(C)n1-c1ccc(F)cc1, the IC50 (Plasmodium falciparum [1]) is reported as 31000 nM, the IC50 (Plasmodium falciparum [2]) is reported as > 1000 nM and the IC50 (Plasmodium falciparum [3]) is reported as > 5000 nM.

For COC(=O)[C@H](CO)NC(=O)c1cc(C)n(-c2ccc(F)cc2)c1C, the IC50 (Plasmodium falciparum [1]) was > 40000 nM.

With CN(C)C(=O)n1cnc(SCc2ccccc2)n1 the IC50 (Plasmodium falciparum [1]) was 438 nM.

CC(=O)N(C1=NC(=O)/C(=C/c2cc(C)n(-c3ccc(F)cc3)c2C)S1)c1ccccc1 showed an IC50 (Plasmodium falciparum [1]) of 47 nM, an IC50 (Plasmodium falciparum [3]) of 47 nM and a cytotoxicity at 120 µM [4] of 75%. The Relative metabolic rate [5] was “Rapid non-NADPH acetamide hydrolysis to OSM-S-10”, the IC50 (Plasmodium falciparum [6]) was 28 nM and the IC50 (Plasmodium falciparum K1 [7]) was 66 nM.

In the case of COC(=O)c1coc(-c2cc(C)n(-c3ccc(F)cc3)c2C)n1, the IC50 (Plasmodium falciparum [1]) is reported as > 40000 nM.

For Cc1cc(/C=C2\SC(N(CC#N)c3ccccc3)=NC2=O)c(C)n1-c1ccc(C(F)(F)F)cc1, the IC50 (Plasmodium falciparum [2]) was > 1000 nM and the IC50 (Plasmodium falciparum [3]) was > 5000 nM.

Compound Clc1ncnc2ccsc12 has an IC50 (Plasmodium falciparum [1]) of 9400 nM.

For c1ccc(CSc2nc[nH]n2)cc1, the IC50 (Plasmodium falciparum [1]) was > 40000 nM.

With Cc1cc(C(=O)OC(C)C(=O)O)c(C)n1-c1ccc(F)cc1 (stereo unspecified) the IC50 (Plasmodium falciparum [1]) was > 40000 nM.

For Cc1cc(C(=O)O)c(C)n1-c1ccc(C(F)(F)F)cc1, the inhibition at 120 µM (Plasmodium falciparum K1 [8]) was 0%, the cytotoxicity at 120 µM [4] was 0% and the inhibition at 120 µM (Plasmodium falciparum [9]) was 25%.

In the case of Cc1ccc(-n2c(C)cc(/C=C3\S/C(=N\c4ccccc4)NC3=O)c2C)cc1, the IC50 (Plasmodium falciparum [1]) is reported as 15 nM, the IC50 (Plasmodium falciparum [2]) is reported as 9 nM and the IC50 (Plasmodium falciparum [3]) is reported as 28 nM. The solubility kinetic [10] was 2 µg/mL (≈ 5.16 µM), the microsomal CLint at 0.5 µM [11] was < 7 µL/min/mg and the half-life at 0.5 µM [12] was > 4.08 h. For the same compound, the Relative metabolic rate [5] was “Low”.

With Cc1cc(/C=C2\S/C(=N\c3ccccc3)NC2=O)c(C)n1-c1ccccn1 the IC50 (Plasmodium falciparum [1]) was 307 nM, the IC50 (Plasmodium falciparum [2]) was 442 nM and the IC50 (Plasmodium falciparum [3]) was 309 nM.

With c1nc(N2CCOCC2)c2sccc2n1 the IC50 (Plasmodium falciparum [1]) was > 40000 nM.

For CC(Nc1ncnc2ccsc12)c1cccc(S(N)(=O)=O)c1 (stereo unspecified), the IC50 (Plasmodium falciparum [1]) was > 40000 nM.

With Cc1cc(C(=O)O)c(C)n1-c1ccc(F)cc1 the IC50 (Plasmodium falciparum [3]) was > 5000 nM, the inhibition at 120 µM (Plasmodium falciparum K1 [8]) was 50% and the cytotoxicity at 120 µM [4] was 20%. For the same compound, the inhibition at 120 µM (Plasmodium falciparum [9]) was 75%.

In the case of COC(=O)[C@@H]1COC(c2cc(C)n(-c3ccc(F)cc3)c2C)=N1, the IC50 (Plasmodium falciparum [1]) is reported as > 40000 nM.

In the case of O=S(=O)(Nc1ncnc2sc(-c3ccccc3)cc12)c1ccccc1, the IC50 (Plasmodium falciparum [1]) is reported as > 40000 nM.

Compound C[C@@H]1CC[C@H]2[C@@H](C)C(=O)O[C@@H]3O[C@@]4(C)CC[C@@H]1[C@]32OO4 [ARTEMISININ] has an IC50 (Plasmodium falciparum [1]) of 41100 nM, a cytotoxicity at 120 µM [4] of 25% and an IC50 (Plasmodium falciparum K1 [7]) of 1 nM.

With Cc1cc(C(=O)CCC(=O)O)c(C)n1-c1ccc(F)cc1 the IC50 (Plasmodium falciparum [1]) was > 40000 nM.

C[C@H]1[C@H](OC(=O)CCC(=O)O)O[C@@H]2O[C@@]3(C)CC[C@H]4[C@H](C)CC[C@@H]1[C@@]24OO3 [ARTESUNATE] showed an IC50 (Plasmodium falciparum [3]) of 19 nM.

For NC(=O)COC(=O)c1cnn(-c2ccc(F)cc2)c1, the IC50 (Plasmodium falciparum [1]) was > 40000 nM.

Compound Cc1cc(C(=O)OCC(=O)N(C)C)c(C)n1-c1ccc(F)cc1 has an IC50 (Plasmodium falciparum [1]) of 11300 nM.

In the case of CCN(CC(=O)Nc1c(F)cccc1F)C(=O)c1cc(C)n(-c2ccc(F)cc2)c1C, the IC50 (Plasmodium falciparum [1]) is reported as > 40000 nM.

For Cc1cc(C(=O)CCC(=O)N(C)C)c(C)n1-c1ccc(F)cc1, the IC50 (Plasmodium falciparum [1]) was > 40000 nM.

For CNC(=O)CCC(=O)c1cc(C)n(-c2ccc(F)cc2)c1C, the IC50 (Plasmodium falciparum [1]) was > 40000 nM.

Cc1ccc(-n2c(C)cc(C(=O)O)c2C)cc1 gave an inhibition at 120 µM (Plasmodium falciparum K1 [8]) of 0%, a cytotoxicity at 120 µM [4] of 0% and an inhibition at 120 µM (Plasmodium falciparum [9]) of 70%.

With Cc1ccc(Nc2ncnc3ccsc23)cc1S(=O)(=O)N(C)C the IC50 (Plasmodium falciparum [1]) was > 40000 nM.

CNC(=O)CN1CCC(NCc2cc(C)n(-c3ccc(Cl)cc3)c2C)CC1 gave an IC50 (Plasmodium falciparum [1]) of 14700 nM.

For Oc1ncnc2cc(I)sc12, the IC50 (Plasmodium falciparum [1]) was > 40000 nM.

CNS(=O)(=O)c1ccc(CNc2ncnc3cc(-c4ccc(OC)cc4)sc23)s1 showed an IC50 (Plasmodium falciparum [1]) of 17600 nM.

With Cc1c(-c2nc(C(N)=O)co2)cnn1-c1ccc(F)cc1 the IC50 (Plasmodium falciparum [1]) was > 40000 nM.

For Cc1cc(C=O)c(C)n1-c1ccc(F)cc1, the IC50 (Plasmodium falciparum [3]) was > 5000 nM, the inhibition at 120 µM (Plasmodium falciparum K1 [8]) was 50% and the cytotoxicity at 120 µM [4] was 25%. For the same compound, the inhibition at 120 µM (Plasmodium falciparum [9]) was 60%.

In the case of COc1ccc(S(=O)(=O)N2CCC(Nc3ncnc4ccsc34)CC2)cc1, the IC50 (Plasmodium falciparum [1]) is reported as > 40000 nM.

Compound CCOC(=O)c1cc(C)n(-c2ccccc2)c1C has an inhibition at 120 µM (Plasmodium falciparum K1 [8]) of 0%, a cytotoxicity at 120 µM [4] of 0% and an inhibition at 120 µM (Plasmodium falciparum [9]) of 80%.

CC(=O)N(C1=NC(=O)/C(=C/c2cc(C)n(-c3ccc(C(F)(F)F)cc3)c2C)S1)c1ccccc1 showed an IC50 (Plasmodium falciparum [1]) of 12 nM, an IC50 (Plasmodium falciparum [2]) of 8 nM and an IC50 (Plasmodium falciparum [3]) of 26 nM.
